Data published in ChEMBL document CHEMBL1131664, “Design and synthesis of potent and selective 5,6-fused heterocyclic thrombin inhibitors” (Bioorg Med Chem Lett, 1999).

Tests used:
[1] = biological target: Prothrombin (Homo sapiens, UniProt P00734); assay: Inhibition of Coagulation factor II
[2] = Inhibition of factor Xa
[3] = biological target: Serine protease 1 (Homo sapiens, UniProt P07477); assay: Inhibitory activity against trypsin
[4] = test system: Rattus norvegicus; assay: Effect on thrombus weight in rat vena cava thrombosis model (iv administration); assay type: functional

Chain of Serine protease 1 (P07477 whole entry): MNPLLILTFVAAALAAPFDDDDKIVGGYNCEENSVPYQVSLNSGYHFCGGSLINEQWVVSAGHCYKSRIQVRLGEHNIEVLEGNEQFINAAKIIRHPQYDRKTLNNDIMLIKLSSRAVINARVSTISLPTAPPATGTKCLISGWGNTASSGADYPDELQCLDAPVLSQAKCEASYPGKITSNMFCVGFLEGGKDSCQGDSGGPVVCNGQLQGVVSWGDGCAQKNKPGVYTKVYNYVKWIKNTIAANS

Row | Ki [1] | Ki [2] | Ki [3] | SMILES | ID50 [4]
1 | 28 nM | 1200 nM | 280 nM | COC(=O)/C=C/c1cn(CC(=O)N2CCC(Cc3ccccc3)CC2)c2ccc(C(=N)N)cc12 | 
2 | 24 nM | 23000 nM |  | N=C(N)c1ccc2c(ccn2CC(=O)N2CCC(Cc3ccccc3F)CC2)c1 | 
3 | 24 nM | 11000 nM |  | N=C(N)c1ccc2c(ccn2CC(=O)N2CCC(Cc3cccc(F)c3)CC2)c1 | 
4 | 18 nM | 10300 nM | > 15000 nM | N=C(N)c1ccc2c(ccn2CC(=O)N2CCC(Cc3ccccc3)CC2)c1 | 0.8 mg/kg/h
5 | > 21000 nM | 9500 nM | > 15000 nM | N=C(N)c1ccc2c(ccn2CC(=O)N2CCC(C(=O)c3ccccc3)CC2)c1 | 

Continued, molecule first:

Row | SMILES | Ki [1] | Ki [2] | Ki [3] | ID50 [4]
6 | N=C(N)c1ccc2c(c1)c(CCO)cn2CC(=O)N1CCC(Cc2ccccc2)CC1 | 7 nM | 2400 nM | 310 nM | 
7 | N=C(N)c1c[nH]c2cc(S(=O)(=O)N3CCC(Cc4ccccc4)CC3)ccc12 | 210 nM | 3300 nM | 1200 nM | 
8 | N=C(N)c1ccc2c(c1)c(CC(=O)O)cn2CC(=O)N1CCC(Cc2ccccc2)CC1 | 19 nM | 3000 nM |  | 
9 | N=C(N)c1ccc2c(c1)ncn2CC(=O)N1CCC(Cc2ccccc2)CC1 | 300 nM | 25000 nM |  | 
10 | COC(=O)Cc1cn(CC(=O)N2CCC(Cc3ccccc3)CC2)c2ccc(C(=N)N)cc12 | 7.4 nM | 400 nM | 140 nM | 
11 | N=C(N)c1ccc2c(cnn2CC(=O)N2CCC(Cc3ccccc3)CC2)c1 | 140 nM | 2900 nM | > 6000 nM | 
12 | N=C(N)c1ccc2c(ccn2CC(=O)N2CCC(C(O)c3ccccc3)CC2)c1 (stereo not given) | > 21000 nM | 16000 nM | > 15000 nM | 
13 | CC(=O)N[C@H](Cc1ccccc1)C(=O)N1CCC[C@H]1C(=O)N[C@@H](CCCN=C(N)N)B(O)O |  |  | 9 nM | 0.04 mg/kg/h
